# Reference: patent publication EP4800015A1, “AZABICYCLO DERIVATIVE AND PREPARATION METHOD THEREFOR, AND USE” (Zhejiang Hisun Pharmaceutical Co., Ltd., priority 2023, dated 2025)
# How the values were obtained:
# [1] = Metabolic stability in human liver microsomes; type: in vitro ADME; conditions: human liver microsomes 0.5 mg mL^-1, NADPH 1 mM, 0-60 min; read-out: Liver microsomal stability t1/2 (min) Human
# Experimental: The purpose of this study was to investigate the metabolic stability of the compounds of the present disclosure in human and dog liver microsomes.
# The compounds were co-incubated with human (or dog) liver microsomes, and the reaction was initiated by adding coenzyme NADPH (1 mM). At 0, 5, 15, 30, and 60 minutes, 60 µL of incubation solution was removed, and 180 µL of acetonitrile containing internal standard (clopidogrel) was added to quench the reaction, the mixture was shaken for 10 seconds, centrifuged at 10000 rpm for 10 minutes, and the supernatant was taken for analysis by LC-MS/MS. The in vitro intrinsic clearance was calculated based on the elimination half-life of the test compound in the incubation system. Midazolam was used as an internal reference compound, with two parallel incubations for each. Incubation conditions are summarized in Table 6 below: Table 6 Incubation conditions for the example compounds of the present disclosure
# The ratio of the peak area of analyte to internal standard (Aanalyte/AIS) was obtained from the instrument, and the remaining percentage (%Control) was calculated from the ratio of Aanalyte/AIS in non-zero time point samples to zero time samples. Ln (%Control) was plotted against incubation time and linearly fitted. The test compound clearance constant (k, min^-1) and clearance half-life (T1/2, min) were calculated using the following equations. k = −slope [formula] T1/2 = 0.693/k. [formula]
# RL95-2 cells = assay: Inhibition of RL95-2 cell proliferation (CellTiter-Glo); type: cell-based; conditions: Homo sapiens; RL95-2 cells (MSI-H), 120 hours
# Method in brief: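 Proliferation IC50 derived by nonlinear regression of % inhibition against log concentration, with 0.1% DMSO wells as reference. CellTiter-Glo luminescence was read after 120 h of compound exposure (10000 nM down to 1.52 nM final) at 37 °C. MSI-H RL95-2 cells seeded at 500/well in DMEM/F12 with 10% FBS the day before.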
# [2] = Pharmacokinetic test in mice after intragastric administration; type: in vivo; conditions: male, mouse, plasma, ICR mice, Oral (10 mg/kg)
# Experimental: ICR mice were used as test animals, the plasma concentrations of the control compound HRO761 and the compounds of the present disclosure at different time points after intragastric administration were determined by LC/MS/MS method, and the pharmacokinetic characteristics of the compounds of the present disclosure in mice were studied.
# ICR mice, male, 30.8 to 38.0 g, purchased from Vital River Laboratory Animal Technology Co., Ltd.
# An appropriate amount of the test compound was weighed, and an appropriate amount of DMA (N,N-dimethylacetamide), 30% Solutol HS15 (30% polyethylene glycol-15 hydroxystearate), and Saline (saline) were added sequentially, the mixture was ultrasonicated and vortex mixed to prepare a 1 mg/mL dosing formulation. The ratio of DMA:30% Solutol HS15:Saline was 5:5:90 (v/v/v).
# After overnight fasting, ICR mice in each test compound injection group (9 mice per group) were administered intragastrically (PO, compound dose was 10 mg/kg, administration volume was 10 mL/kg), and food was given 4 hours after administration.
# About 0.1 mL of blood was collected via the orbital cavity before administration and at 0.25 h, 0.5 h, 1 h, 2 h, 4 h, 8 h, 10 h, and 24 h after administration, and whole blood samples were placed in anticoagulant tubes containing EDTA-K2. The samples were placed on ice after collection, and plasma was separated by centrifugation (centrifugation conditions: 1500 g, 10 minutes). The collected plasma was stored at -40 to -20 °C before analysis.
# The content of the test compound in mouse plasma after intragastric administration was determined by LC-MS/MS.
compound,measurement,setting,value
"CCc1c(N2CCN(C(=O)c3ncnc(C)c3O)CC2)c(=O)n2nc(-c3cc4ccccc4s3)nc2n1CC(=O)Nc1ccc(C(F)(F)F)cc1Cl [Example 80, 2-(2-(benzo[b]thiophen-2-yl)-5-ethyl-6-(4-(5-hydroxy-6-methylpyrimidine-4-carbonyl)piperazin-1-yl)-7-oxo-[1,2,4]triazolo[1,5-a]pyrimidin-4(7H)-yl)-N-(2-chloro-4-(trifluoromethyl)phenyl)acet amide]",half-life,[1],1300 min
same,IC50,RL95-2 cells,1 to 100 nM
same,AUC(0-t),[2]; read-out: Area under curve AUC0-t,104 µg·h/mL
same,half-life,[2]; read-out: Half-life T1/2 (converted),2.11 h
same,Cmax,[2]; read-out: Plasma concentration Cmax,19800 ng/mL
